This is an account of results in US8268848B2, “Cyclopropane compound” (Eisai R&D Management Co., Ltd., priority 2010, dated 2012).

In one assay the target is T1, OX1 (Homo sapiens, UniProt O43613).
T1 sequence (O43613 1-425): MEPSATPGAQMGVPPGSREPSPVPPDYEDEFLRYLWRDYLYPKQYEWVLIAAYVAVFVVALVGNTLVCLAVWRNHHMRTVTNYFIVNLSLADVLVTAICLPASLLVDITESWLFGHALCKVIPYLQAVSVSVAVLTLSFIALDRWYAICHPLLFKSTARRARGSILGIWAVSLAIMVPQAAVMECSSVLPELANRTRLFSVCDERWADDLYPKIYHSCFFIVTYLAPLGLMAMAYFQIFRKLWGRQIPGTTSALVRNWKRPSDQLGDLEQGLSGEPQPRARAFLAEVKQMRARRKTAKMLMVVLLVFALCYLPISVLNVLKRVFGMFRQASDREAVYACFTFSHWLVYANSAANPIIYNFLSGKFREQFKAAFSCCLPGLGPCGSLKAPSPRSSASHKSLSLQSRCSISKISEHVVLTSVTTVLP
Description: Measurement of orexin receptor-binding ability ([125I]-OX-A, cell membranes, OX1). Details: expressed in transfected cells; host or cells: CHO cells (membrane preparation). The method, then: (§1) 1. Measurement of Orexin Receptor-Binding Ability
(§2) The assay was carried out using a 96-well Wheat Germ Agglutinin Flash Plate (PerkinElmer). The volume in a single assay well was 100 ul, and the composition of the reaction solution was as follows:
(§3) 25 mM HEPES (pH 7.5), 1 mM CaCl2, 4.5 mM MgCl2, 0.5% BSA (bovine serum albumin), 0.1% sodium azide, 0.05% Tween-20, and 0.2% DMSO.
(§4) Cell membranes were prepared from recombinant CHO cells that expressed OX2 or OX1. The cell membranes were used in an amount of 5 μg protein/assay. […] Finally, the radioactivity of each well was measured using a scintillation counter (TopCount, PerkinElmer).

The next assay has as its target T2, OX2 (Homo sapiens, UniProt O43614).
T2 sequence (O43614 1-444): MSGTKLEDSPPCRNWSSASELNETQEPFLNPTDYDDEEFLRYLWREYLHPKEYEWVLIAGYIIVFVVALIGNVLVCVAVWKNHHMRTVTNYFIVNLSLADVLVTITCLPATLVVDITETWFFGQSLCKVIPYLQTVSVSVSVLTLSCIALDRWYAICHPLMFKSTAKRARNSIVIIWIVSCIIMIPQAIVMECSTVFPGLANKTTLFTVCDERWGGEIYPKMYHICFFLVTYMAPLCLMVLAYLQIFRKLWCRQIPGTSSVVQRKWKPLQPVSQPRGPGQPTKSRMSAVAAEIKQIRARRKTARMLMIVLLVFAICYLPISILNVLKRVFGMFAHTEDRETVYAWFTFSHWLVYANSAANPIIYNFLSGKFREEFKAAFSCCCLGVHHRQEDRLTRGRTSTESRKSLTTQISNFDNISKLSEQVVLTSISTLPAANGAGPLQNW
Description: Measurement of orexin receptor-binding ability ([125I]-OX-A, cell membranes, OX2). Details: expressed in transfected cells; host or cells: CHO cells (membrane preparation). The note with it: membranes of recombinant CHO cells expressing OX2, 0.2 nM [125I]-OX-A. The method, then:
as §1, §2, §3, §4

[1] abbreviates: membranes of recombinant CHO cells expressing OX1, 0.2 nM [125I]-OX-A, read-out: OX1 (IC50).

Read-outs that look alike come from different tables or passages of the source.

As usually defined, the IC50 is the point on the concentration scale where inhibition reaches its midpoint. Regarding `Cc1ncc(OC[C@@]2(c3ccccc3)C[C@H]2C(=O)Nc2cccc(-c3nnc[nH]3)c2)c(C)n1` [Example 38], the IC50 was determined as 518 nM on OX1 (setting [1]) and 29 nM at OX2 (read-out: OX2 (IC50)).

With `Cc1ncc(OC[C@@]2(c3ccccc3)C[C@H]2C(=O)Nc2cccc(CC#N)c2)c(C)n1` [Example 39, (1R,2S)-N-[3-(cyanomethyl)phenyl]-2-{[(2,4-dimethylpyrimidin-5-yl)oxy]methyl}-2-phenylcyclopropanecarboxamide], the IC50 at OX1 (setting [1]) came out at 354 nM; at OX2 (read-out: OX2 (IC50)) it was 6 nM.

For `Cc1ncc(OC[C@@]2(c3ccccc3)C[C@H]2C(=O)Nc2cccc(CCO)c2)c(C)n1` [Example 40], the concentration for half-maximal inhibition (IC50) at OX1 (setting [1]) stood at 172 nM; at OX2 (read-out: OX2 (IC50)) it was 9 nM.

For the compound `Cc1ncc(OC[C@@]2(c3ccccc3)C[C@H]2C(=O)Nc2ccnc(C#N)c2)c(C)n1` [Example 41, (1R,2S)-N-(2-cyanopyridin-4-yl)-2-{[(2,4-dimethylpyrimidin-5-yl)oxy]methyl}-2-phenylcyclopropanecarboxamide], the IC50 worked out at 125 nM at OX1 (setting [1]) and 8 nM at OX2 (read-out: OX2 (IC50)).

As for `COCc1cccc(NC(=O)[C@@H]2C[C@@]2(COc2cnc(C)nc2C)c2ccccc2)c1` [Example 42], the concentration for half-maximal inhibition (IC50) at OX1 was determined as 374 nM; at OX2 (OX2 (IC50) nM), 12 nM.

`Cc1ncc(OC[C@@]2(c3ccccc3)C[C@H]2C(=O)Nc2cccc(C(F)(F)F)c2)c(C)n1` [Example 43, (1R,2S)-2-{[(2,4-dimethylpyrimidin-5-yl)oxy]methyl}-2-phenyl-N-[3-(trifluoromethyl)phenyl]cyclopropanecarboxamide]: the figures for the IC50 at OX1 (setting [1]) and on OX2 (read-out: OX2 (IC50)) were 86 nM and 7 nM, respectively.

As for `Cc1ncc(OC[C@@]2(c3ccccc3)C[C@H]2C(=O)Nc2cc(C#N)ccn2)c(C)n1` [Example 46], the IC50 at OX1 (setting [1]) is 423 nM; on OX2 (read-out: OX2 (IC50)), 43 nM.

`Cc1ccnc(NC(=O)[C@@H]2C[C@@]2(COc2cnc(C)nc2C)c2ccccc2)c1` [Example 47]: the IC50 came to 228 nM on OX1 (setting [1]) and 29 nM on OX2 (read-out: OX2 (IC50)).

As to `Cc1ncc(OC[C@@]2(c3ccccc3)C[C@H]2C(=O)Nc2cc(Cl)ccn2)c(C)n1` [Example 49], the IC50 on OX1 is 65 nM; on OX2 (OX2 (IC50) nM), 23 nM.

On to `COc1ccnc(NC(=O)[C@@H]2C[C@@]2(COc2cnc(C)nc2C)c2ccccc2)c1` [Example 50], for which the IC50 at OX1 came out at 12 nM; on OX2 (OX2 (IC50) nM), 13 nM.

Turning to `Cc1ncc(OC[C@@]2(c3ccccc3)C[C@H]2C(=O)Nc2cc3ccccc3cn2)c(C)n1` [Example 52], the values for the IC50 on OX1 (setting [1]) and at OX2 (read-out: OX2 (IC50)) were 37 nM and 28 nM, respectively.

For the compound `Cc1ncc(OC[C@@]2(c3ccccc3)C[C@H]2C(=O)Nc2ccc(F)nc2)c(C)n1` [Example 53], the IC50 on OX1 (setting [1]) turned out to be 261 nM; at OX2 (read-out: OX2 (IC50)) it was 18 nM.

`Cc1ncc(OC[C@@]2(c3ccccc3)C[C@H]2C(=O)Nc2cnc(F)c(C)c2)c(C)n1` [Example 57]: the IC50 at OX1 (setting [1]) worked out at 532 nM; on OX2 (read-out: OX2 (IC50)), 35 nM.

Turning to `Cc1ncc(OC[C@@]2(c3ccccc3)C[C@H]2C(=O)Nc2cnc(Br)c(C)c2)c(C)n1` [Example 58], the 50% inhibitory concentration (IC50) at OX1 (setting [1]) was 1930 nM; on OX2 (read-out: OX2 (IC50)), 89 nM.

As to `Cc1ncc(OC[C@@]2(c3ccccc3)C[C@H]2C(=O)Nc2cnc(Cl)c(Br)c2)c(C)n1` [Example 59], the results for the IC50 on OX1 (setting [1]) and on OX2 (read-out: OX2 (IC50)) were 1410 nM and 51 nM, respectively.

On to `Cc1ncc(OC[C@@]2(c3ccccc3)C[C@H]2C(=O)Nc2cnc(Cl)c(C(F)(F)F)c2)c(C)n1` [Example 60], for which the IC50 is over 2000 nM at OX1 (setting [1]) and 105 nM on OX2 (read-out: OX2 (IC50)).

Take `Cc1ncc(OC[C@@]2(c3ccccc3)C[C@H]2C(=O)Nc2cccc(F)n2)c(C)n1` [Example 68]: the IC50 was 140 nM at OX1 and 56 nM on OX2 (OX2 (IC50) nM).

For `Cc1ccc(NC(=O)[C@@H]2C[C@@]2(COc2cnc(C)nc2C)c2ccccc2)nc1` [Example 69], the values for the IC50 on OX1 and on OX2 (OX2 (IC50) nM) were 126 nM and 34 nM, respectively.

As for `Cc1cccc(NC(=O)[C@@H]2C[C@@]2(COc2cnc(C)nc2C)c2ccccc2)n1` [Example 70], the values for the IC50 on OX1 and on OX2 (OX2 (IC50) nM) were 704 nM and 41 nM, respectively.

In the case of `COCc1cc(NC(=O)[C@@H]2C[C@@]2(COc2cnc(C)nc2C)c2ccccc2)ncc1F` [Example 71, (1R,2S)-2-{[(2,4-dimethylpyrimidin-5-yl)oxy]methyl}-N-[5-fluoro-4-(methoxymethyl)pyridin-2-yl]-2-phenylcyclopropanecarboxamide], the values for the IC50 at OX1 (setting [1]) and at OX2 (read-out: OX2 (IC50)) were 52 nM and 5.1 nM, respectively.

For the compound `COc1cc(NC(=O)[C@@H]2C[C@@]2(COc2cnc(C)nc2C)c2ccccc2)ccn1` [Example 72], the IC50 on OX1 (setting [1]) was determined as 202 nM; on OX2 (read-out: OX2 (IC50)), 31 nM.

Take `Cc1ncc(OC[C@@]2(c3ccccc3)C[C@H]2C(=O)Nc2cc(F)cc(F)n2)c(C)n1` [Example 76-1, (1R,2S)-N-(4,6-difluoropyridin-2-yl)-2-{[(2,4-dimethylpyrimidin-5-yl)oxy]methyl}-2-phenylcyclopropanecarboxamide]: the IC50 is 489 nM on OX1 and 61 nM on OX2 (OX2 (IC50) nM).

Regarding `Cc1ncc(OC[C@@]2(c3ccccc3)C[C@H]2C(=O)Nc2cc(F)nc(F)c2)c(C)n1` [Example 76-2, (1R,2S)-N-(2,6-difluoropyridin-4-yl)-2-{[(2,4-dimethylpyrimidin-5-yl)oxy]methyl}-2-phenylcyclopropanecarboxamide], the IC50 at OX1 (setting [1]) came out at 914 nM; at OX2 (read-out: OX2 (IC50)) it was 47 nM.

As for `Cc1ncc(OC[C@@]2(c3ccccc3)C[C@H]2C(=O)Nc2ccc(F)cc2)c(C)n1` [Example 77, (1R,2S)-2-{[(2,4-dimethylpyrimidin-5-yl)oxy]methyl}-N-(4-fluorophenyl)-2-phenylcyclopropanecarboxamide], the IC50 on OX1 (setting [1]) is 41 nM; on OX2 (read-out: OX2 (IC50)), 24 nM.

As for `Cc1ncc(OC[C@@]2(c3ccccc3)C[C@H]2C(=O)Nc2ccccc2F)c(C)n1` [Example 78], the IC50 came out at 662 nM on OX1 and 94 nM at OX2 (OX2 (IC50) nM).

In the case of `Cc1ncc(OC[C@@]2(c3ccccc3)C[C@H]2C(=O)Nc2cccc(F)c2)c(C)n1` [Example 79], the IC50 came to 90 nM at OX1 and 26 nM at OX2 (OX2 (IC50) nM).

Consider `Cc1ncc(OC[C@@]2(c3ccccc3)C[C@H]2C(=O)Nc2cccc(C#N)c2)c(C)n1` [Example 80], for which the values for the IC50 at OX1 and on OX2 (OX2 (IC50) nM) were 54 nM and 16 nM, respectively.

On to `Cc1nc(C)[n+]([O-])cc1OC[C@@]1(c2ccccc2)C[C@H]1C(=O)Nc1ccc(F)nc1` [Example 81, (1R,2S)-2-[(2,4-dimethyl-1-oxopyrimidin-5-yl)oxymethyl]-N-(6-fluoropyridin-3-yl)-2-phenylcyclopropanecarboxamide], for which the IC50 at OX1 (setting [1]) came to 2590 nM; at OX2 (read-out: OX2 (IC50)), 63 nM.

With `Cc1ncc(OC[C@@]2(c3cccc(F)c3)C[C@H]2C(=O)Nc2ccc(F)c(F)c2)c(C)n1` [Example 84, (1R,2S)-N-(3,4-difluorophenyl)-2-{[(2,4-dimethylpyrimidin-5-yl)oxy]methyl}-2-(3-fluorophenyl)cyclopropanecarboxamide], the IC50 on OX1 worked out at 6 nM; at OX2 (OX2 (IC50) nM) it was 3 nM.

With `Cc1ncc(OC[C@@]2(c3cccc(F)c3)C[C@H]2C(=O)Nc2cc(Cl)ccn2)c(C)n1` [Example 85, (1R,2S)-N-(4-chloropyridin-2-yl)-2-{[(2,4-dimethylpyrimidin-5-yl)oxy]methyl}-2-(3-fluorophenyl)cyclopropanecarboxamide], the results for the IC50 at OX1 and on OX2 (OX2 (IC50) nM) were 4 nM and 5 nM, respectively.

`COCc1cc(NC(=O)[C@@H]2C[C@@]2(COc2cnc(C)nc2C)c2cccc(F)c2)ncc1F` [Example 86, (1R,2S)-2-{[(2,4-dimethylpyrimidin-5-yl)oxy]methyl}-N-(5-fluoro-4-methoxymethylpyridin-2-yl)-2-(3-fluorophenyl)cyclopropanecarboxamide]: the IC50 at OX1 came to 6.3 nM; at OX2 (OX2 (IC50) nM), 6.1 nM.

On to `Cc1ncc(OC[C@@]2(c3cccc(F)c3)C[C@H]2C(=O)Nc2ccccn2)c(C)n1` [Example 87], for which the figures for the IC50 at OX1 and on OX2 (OX2 (IC50) nM) were 43 nM and 10 nM, respectively.

As for `Cc1ncc(OC[C@@]2(c3cccc(F)c3)C[C@H]2C(=O)Nc2ccc(F)nc2)c(C)n1` [Example 88], the IC50 was found to be 267 nM on OX1 and 13 nM on OX2 (OX2 (IC50) nM).
